Assay results published in ChEMBL document CHEMBL5104183, “Discovery of Highly Potent and Selective Matrix Metalloproteinase-7 Inhibitors by Hybridizing the S1' Subsite Binder with Short Peptides” (J Med Chem, 2022).
*1 amine or outer side, *2 acyl side, *3 side chain or, on linkers, in order; H or OH if unused. Where a SMILES comes first, the peptide text is derived from it. [ ]: non-standard residue; d: D form. The star is where a group is joined. Benzenesulfonyl(4-Cl,3-CF3) = O=S(=O)(c1ccc(Cl)c(C(F)(F)F)c1)*; γGlu = O=C(O)[C@H](CCC(=O)[*:2])N[*:1]; β3hP = O=C(O)C[C@@H]1CCCN1

Legend:
Matrilysin = molecular target: T1, Matrilysin (Homo sapiens, UniProt P09237); assay: Inhibition of human recombinant MMP-7 (Leu18 to Lys267 residues) using MOCAc-Pro-Leu-Gly-Leu-A2pr(Dnp)-Ala-Arg-NH2 as fluorogenic substrate preincubated for 15 mins followed by substrate addition by fluorescence based analysis
T1 sequence (P09237 whole entry): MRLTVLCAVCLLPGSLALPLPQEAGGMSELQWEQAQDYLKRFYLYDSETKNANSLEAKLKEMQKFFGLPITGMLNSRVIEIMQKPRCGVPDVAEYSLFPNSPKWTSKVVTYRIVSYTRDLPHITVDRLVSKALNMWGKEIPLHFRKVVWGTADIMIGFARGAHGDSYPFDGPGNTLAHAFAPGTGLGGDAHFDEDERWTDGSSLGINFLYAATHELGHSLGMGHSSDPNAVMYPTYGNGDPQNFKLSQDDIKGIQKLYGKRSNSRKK

[1] = molecular target: 72 kDa type IV collagenase (Homo sapiens, UniProt P08253); assay: Inhibition of human recombinant MMP-2 ( Ile34 to Cys660 residues) using MOCAc-Pro-Leu-Gly-Leu-A2pr(Dnp)-Ala-Arg-NH2 as fluorogenic substrate preincubated for 15 mins followed by substrate addition by fluorescence based analysis
72 kDa type IV collagenase, sequence (P08253 whole entry): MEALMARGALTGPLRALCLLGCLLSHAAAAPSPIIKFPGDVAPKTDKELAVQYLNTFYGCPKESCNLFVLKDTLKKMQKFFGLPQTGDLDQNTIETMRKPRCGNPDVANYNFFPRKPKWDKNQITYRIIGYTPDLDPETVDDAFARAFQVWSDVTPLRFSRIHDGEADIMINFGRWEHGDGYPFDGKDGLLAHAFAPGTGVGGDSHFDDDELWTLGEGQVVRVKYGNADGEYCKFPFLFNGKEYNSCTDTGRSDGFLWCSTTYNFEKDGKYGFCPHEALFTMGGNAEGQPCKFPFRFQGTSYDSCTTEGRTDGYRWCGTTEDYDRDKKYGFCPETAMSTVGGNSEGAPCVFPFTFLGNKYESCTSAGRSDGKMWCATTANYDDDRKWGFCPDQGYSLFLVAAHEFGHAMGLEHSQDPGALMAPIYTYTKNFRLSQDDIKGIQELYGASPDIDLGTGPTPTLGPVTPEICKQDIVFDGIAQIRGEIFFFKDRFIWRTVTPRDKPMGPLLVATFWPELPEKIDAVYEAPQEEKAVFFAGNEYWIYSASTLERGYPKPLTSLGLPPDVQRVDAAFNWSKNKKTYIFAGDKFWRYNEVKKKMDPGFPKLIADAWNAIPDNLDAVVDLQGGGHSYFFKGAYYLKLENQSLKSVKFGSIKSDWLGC

Interstitial collagenase = molecular target: T2, Interstitial collagenase (Homo sapiens, UniProt P03956); assay: Inhibition of human recombinant MMP-1 (Phe20 to Asn469 residue) using MOCAc-Lys-Pro-Leu-Gly-Leu-A2pr(Dnp)-Ala-Arg-NH2 as fluorogenic substrate preincubated for 15 mins followed by substrate addition by fluorescence based analysis
T2 sequence (P03956 whole entry): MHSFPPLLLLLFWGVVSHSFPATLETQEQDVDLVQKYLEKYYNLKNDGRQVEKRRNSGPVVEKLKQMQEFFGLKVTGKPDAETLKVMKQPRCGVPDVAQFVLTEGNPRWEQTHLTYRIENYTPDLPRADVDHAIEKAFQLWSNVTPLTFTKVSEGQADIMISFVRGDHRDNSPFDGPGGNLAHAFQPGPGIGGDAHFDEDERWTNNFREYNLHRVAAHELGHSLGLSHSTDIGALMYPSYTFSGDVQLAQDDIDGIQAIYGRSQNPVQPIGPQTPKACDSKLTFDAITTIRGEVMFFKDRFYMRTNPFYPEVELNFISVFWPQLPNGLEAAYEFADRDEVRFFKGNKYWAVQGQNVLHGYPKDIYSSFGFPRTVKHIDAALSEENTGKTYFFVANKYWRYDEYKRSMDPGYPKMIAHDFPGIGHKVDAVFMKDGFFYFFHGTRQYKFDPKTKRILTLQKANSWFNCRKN

Stromelysin-1 = Stromelysin-1 (Homo sapiens, UniProt P08254); assay: Inhibition of human recombinant MMP-3 (Tyr18 to Cys477 residues ) using MOCAc-Arg-Pro-Lys-Pro-Val-Glu-Nva-Trp-Arg-Lys(Dnp)-NH2 as fluorogenic substrate preincubated for 15 mins followed by substrate addition by fluorescence based analysis
Stromelysin-1, sequence (P08254 whole entry): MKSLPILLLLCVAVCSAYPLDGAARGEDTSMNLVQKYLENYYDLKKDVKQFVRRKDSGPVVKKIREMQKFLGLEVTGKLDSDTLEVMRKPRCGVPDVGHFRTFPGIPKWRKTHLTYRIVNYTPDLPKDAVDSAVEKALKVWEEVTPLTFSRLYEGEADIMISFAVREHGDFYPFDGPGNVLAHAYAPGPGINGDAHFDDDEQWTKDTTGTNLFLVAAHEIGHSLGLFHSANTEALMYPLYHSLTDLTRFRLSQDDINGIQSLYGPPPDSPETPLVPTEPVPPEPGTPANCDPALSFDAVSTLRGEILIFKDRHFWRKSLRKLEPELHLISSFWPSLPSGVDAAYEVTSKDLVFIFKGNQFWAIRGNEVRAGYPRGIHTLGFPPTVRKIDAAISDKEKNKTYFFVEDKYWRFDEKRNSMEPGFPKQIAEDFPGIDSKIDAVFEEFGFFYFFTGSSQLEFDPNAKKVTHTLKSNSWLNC

Neutrophil collagenase = Neutrophil collagenase (Homo sapiens, UniProt P22894); assay: Inhibition of human recombinant MMP-8 (Phe21 to Gly467 residues) using MOCAc-Pro-Leu-Gly-Leu-A2pr(Dnp)-Ala-Arg-NH2 as fluorogenic substrate preincubated for 15 mins followed by substrate addition by fluorescence based analysis
Neutrophil collagenase, sequence (P22894 whole entry): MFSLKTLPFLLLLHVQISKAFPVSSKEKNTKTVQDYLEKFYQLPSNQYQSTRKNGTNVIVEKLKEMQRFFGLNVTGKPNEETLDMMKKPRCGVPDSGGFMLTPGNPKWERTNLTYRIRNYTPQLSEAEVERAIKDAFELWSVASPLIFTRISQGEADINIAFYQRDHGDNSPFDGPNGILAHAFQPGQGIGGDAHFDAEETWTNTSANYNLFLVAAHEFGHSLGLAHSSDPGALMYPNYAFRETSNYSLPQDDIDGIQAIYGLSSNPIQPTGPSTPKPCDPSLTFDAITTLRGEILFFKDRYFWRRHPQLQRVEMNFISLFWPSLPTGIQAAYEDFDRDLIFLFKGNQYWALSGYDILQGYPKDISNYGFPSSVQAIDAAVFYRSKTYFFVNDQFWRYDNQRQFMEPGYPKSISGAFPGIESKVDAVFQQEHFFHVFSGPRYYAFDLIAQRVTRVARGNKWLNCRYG

[2] = molecular target: Matrix metalloproteinase-9 (Homo sapiens, UniProt P14780); assay: Inhibition of human recombinant MMP-9 (Ala20 to Asp707 residues) using MOCAc-Pro-Leu-Gly-Leu-A2pr(Dnp)-Ala-Arg-NH2 as fluorogenic substrate preincubated for 15 mins followed by substrate addition by fluorescence based analysis
Matrix metalloproteinase-9, sequence (P14780 whole entry): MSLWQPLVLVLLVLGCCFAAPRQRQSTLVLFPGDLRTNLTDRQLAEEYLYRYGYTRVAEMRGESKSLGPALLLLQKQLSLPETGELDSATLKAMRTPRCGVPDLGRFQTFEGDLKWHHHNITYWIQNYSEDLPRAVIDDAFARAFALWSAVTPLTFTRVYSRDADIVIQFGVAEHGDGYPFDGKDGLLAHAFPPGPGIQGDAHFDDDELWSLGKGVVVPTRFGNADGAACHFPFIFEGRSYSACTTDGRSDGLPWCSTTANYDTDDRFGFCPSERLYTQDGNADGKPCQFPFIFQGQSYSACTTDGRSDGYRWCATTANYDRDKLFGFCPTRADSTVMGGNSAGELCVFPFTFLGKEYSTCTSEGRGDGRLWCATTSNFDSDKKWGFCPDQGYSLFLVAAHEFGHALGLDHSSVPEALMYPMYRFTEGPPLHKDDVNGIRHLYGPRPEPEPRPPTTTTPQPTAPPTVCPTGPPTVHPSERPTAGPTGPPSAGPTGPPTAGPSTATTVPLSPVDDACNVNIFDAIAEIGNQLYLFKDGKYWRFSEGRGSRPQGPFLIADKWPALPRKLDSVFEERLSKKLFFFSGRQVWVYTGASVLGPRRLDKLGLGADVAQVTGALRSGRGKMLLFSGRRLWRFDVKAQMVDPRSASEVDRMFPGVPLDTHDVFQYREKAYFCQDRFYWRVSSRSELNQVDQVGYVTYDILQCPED

[3] = molecular target: Macrophage metalloelastase (Homo sapiens, UniProt P39900); assay: Inhibition of human recombinant MMP-12 (Leu17 to Cys470 residues) using MOCAc-Pro-Leu-Gly-Leu-A2pr(Dnp)-Ala-Arg-NH2 as fluorogenic substrate preincubated for 15 mins followed by substrate addition by fluorescence based analysis
Macrophage metalloelastase, sequence (P39900 whole entry): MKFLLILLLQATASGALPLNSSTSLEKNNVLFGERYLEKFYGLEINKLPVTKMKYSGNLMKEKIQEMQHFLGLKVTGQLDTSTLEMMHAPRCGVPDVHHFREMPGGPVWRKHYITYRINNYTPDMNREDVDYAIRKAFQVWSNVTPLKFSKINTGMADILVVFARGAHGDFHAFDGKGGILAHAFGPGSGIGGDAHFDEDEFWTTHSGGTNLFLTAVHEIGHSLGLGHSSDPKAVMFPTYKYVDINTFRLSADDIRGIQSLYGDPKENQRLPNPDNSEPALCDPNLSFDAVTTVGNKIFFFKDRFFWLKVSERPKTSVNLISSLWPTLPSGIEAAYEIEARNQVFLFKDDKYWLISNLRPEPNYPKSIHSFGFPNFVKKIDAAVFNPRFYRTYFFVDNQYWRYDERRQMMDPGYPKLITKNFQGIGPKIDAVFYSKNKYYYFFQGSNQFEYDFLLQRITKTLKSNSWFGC

Collagenase 3 = Collagenase 3 (Homo sapiens, UniProt P45452); assay: Inhibition of human recombinant MMP-13 (Leu20 to Cys471 residues) using MOCAc-Pro-Leu-Gly-Leu-A2pr(Dnp)-Ala-Arg-NH2 as fluorogenic substrate preincubated for 15 mins followed by substrate addition by fluorescence based analysis
[4] = molecular target: Matrix metalloproteinase-14 (Homo sapiens, UniProt P50281); assay: Inhibition of human recombinant C-terminal 10-His tagged MMP-14 ( Ala21 to Gly284 residues) using MOCAc-Lys-Pro-Leu-Gly-Leu-A2pr(Dnp)-Ala-Arg-NH2 as fluorogenic substrate preincubated for 15 mins followed by substrate addition by fluorescence based analysis
[5] = Stability in human liver microsomes at 1 uM incubated for 15 mins by liquid chromatography-mass spectrometry; assay type: ADME, Microsome; conditions: 0.25 h
[6] = Stability in human serum incubated for 4 hrs by liquid chromatography-tandem mass spectrometry; assay type: ADME, cell-free
Homo sapiens [7] = organism: Homo sapiens; assay: Selectivity index, ratio of IC50 for human recombinant MMP-12 to IC50 for human recombinant MMP-7
Homo sapiens [8] = organism: Homo sapiens; assay: Selectivity index, ratio of IC50 for human recombinant MMP-14 to IC50 for human recombinant MMP-7

Row | Structure (SMILES) | IC50 (Matrilysin) [µM] | IC50 [1] [µM] | IC50 (Stromelysin-1) [µM] | IC50 (Neutrophil collagenase) [µM] | IC50 [2] [µM] | IC50 [3] [µM] | IC50 (Collagenase 3) [µM] | IC50 [4] [µM] | other results
1 | O=C(O)[C@H](CCc1ccccc1)NS(=O)(=O)c1ccc(Cl)c(C(F)(F)F)c1 | 6.1 | > 100 | > 100 | > 100 | > 100 | > 100 | > 100 | > 100 | IC50 (Interstitial collagenase): > 100 µM
2 | CSCC[C@H](NC(=O)[C@H](CC(C)C)NC(=O)[C@H](CCC(N)=O)NC(=O)CC[C@H](NS(=O)(=O)c1ccc(Cl)c(C(F)(F)F)c1)C(=O)O)C(N)=O | 1.3 |  |  |  |  |  |  |  | 
3 | CSCC[C@H](NC(=O)[C@H](CC(C)C)NC(=O)[C@H](CC(C)C)NC(=O)CC[C@H](NS(=O)(=O)c1ccc(Cl)c(C(F)(F)F)c1)C(=O)O)C(N)=O | 0.78 |  |  |  |  |  |  |  | 
4 | CC(C)C[C@H](NC(=O)[C@H](C)NC(=O)CC[C@H](NS(=O)(=O)c1ccc(Cl)c(C(F)(F)F)c1)C(=O)O)C(=O)N[C@@H](C)C(N)=O | 1.7 |  |  |  |  |  |  |  | 
5 | CSCC[C@H](NC(=O)[C@H](CC(C)C)NC(=O)[C@H](CC(N)=O)NC(=O)CC[C@H](NS(=O)(=O)c1ccc(Cl)c(C(F)(F)F)c1)C(=O)O)C(N)=O | 7.5 |  |  |  |  |  |  |  | 
6 | CSCC[C@H](NC(=O)[C@H](CC(C)C)NC(=O)[C@H](C)NC(=O)C[C@H](NS(=O)(=O)c1ccc(Cl)c(C(F)(F)F)c1)C(=O)O)C(N)=O | 4.7 |  |  |  |  |  |  |  | 
7 | CSCC[C@H](NC(=O)[C@H](C)NC(=O)[C@H](C)NC(=O)CC[C@H](NS(=O)(=O)c1ccc(Cl)c(C(F)(F)F)c1)C(=O)O)C(N)=O | 6.7 |  |  |  |  |  |  |  | 
8 | CSCC[C@H](NC(=O)[C@H](CC(C)C)NC(=O)[C@H](CO)NC(=O)CC[C@H](NS(=O)(=O)c1ccc(Cl)c(C(F)(F)F)c1)C(=O)O)C(N)=O | 5.7 |  |  |  |  |  |  |  | 
9 | CSCC[C@H](NC(=O)[C@H](CC(C)C)NC(=O)[C@H](C)NC(=O)CC[C@H](NS(=O)(=O)c1ccc(Cl)c(C(F)(F)F)c1)C(=O)O)C(N)=O | 0.44 | > 100 | > 100 | > 100 | > 100 | 40 | > 100 | > 100 | 

Compounds with a lower IC50 (Matrilysin), results first:

Row | IC50 (Matrilysin) [µM] | IC50 [1] [µM] | IC50 (Stromelysin-1) [µM] | IC50 (Neutrophil collagenase) [µM] | IC50 [2] [µM] | IC50 [3] [µM] | IC50 (Collagenase 3) [µM] | IC50 [4] [µM] | Structure (SMILES) | other results
10 | 0.12 | 73 | > 100 | > 100 | > 100 | 20 | > 100 | 25 | CSCC[C@H](NC(=O)[C@H](CC(C)C)NC(=O)CNC(=O)CC[C@H](NS(=O)(=O)c1ccc(Cl)c(C(F)(F)F)c1)C(=O)O)C(N)=O | 
11 | 0.019 |  |  |  |  |  |  |  | CC(C)C[C@H](NC(=O)CNC(=O)CC[C@H](NS(=O)(=O)c1ccc(Cl)c(C(F)(F)F)c1)C(=O)O)C(=O)N[C@H](C(=O)N1CCC[C@H]1C(N)=O)C(C)C ({Benzenesulfonyl(4-Cl,3-CF3)-γGlu}-GLVP-NH2) | 
12 | 0.056 | 45 | > 100 | > 100 | > 100 | 28 | > 100 | 17 | CC(C)C[C@H](NC(=O)CNC(=O)CC[C@H](NS(=O)(=O)c1ccc(Cl)c(C(F)(F)F)c1)C(=O)O)C(=O)N[C@H](C(N)=O)C(C)C | IC50 (Interstitial collagenase): > 100 µM
13 | 0.01 | 11 | > 100 | 59 | > 100 | 2.9 | > 100 | 0.45 | CC(C)C[C@H](NC(=O)CNC(=O)CC[C@H](NS(=O)(=O)c1ccc(Cl)c(C(F)(F)F)c1)C(=O)O)C(=O)N[C@H](C(=O)N1CCC[C@H]1CC(N)=O)C(C)C ({Benzenesulfonyl(4-Cl,3-CF3)-γGlu}-GLV[β3hP]-NH2) | Stability [5]: Stable; Stability [6]: Stable; Ratio IC50 (Homo sapiens [7]): 290; Ratio IC50 (Homo sapiens [8]): 45
14 | 0.11 |  |  |  |  |  |  |  | CSCC[C@H](NC(=O)[C@H](Cc1ccccc1)NC(=O)CNC(=O)CC[C@H](NS(=O)(=O)c1ccc(Cl)c(C(F)(F)F)c1)C(=O)O)C(N)=O | 
15 | 0.016 | 33 | > 100 | > 100 | > 100 | 12 | > 100 | 11 | CC(C)C[C@H](NC(=O)CNC(=O)CC[C@H](NS(=O)(=O)c1ccc(Cl)c(C(F)(F)F)c1)C(=O)O)C(=O)N[C@H](C(=O)N[C@@H](C)C(N)=O)C(C)C ({Benzenesulfonyl(4-Cl,3-CF3)-γGlu}-GLVA-NH2) | IC50 (Interstitial collagenase): > 100 µM; Stability [5]: Stable; Stability [6]: Stable
